Among the data in publication PMC4303869 (Scientific Reports, 2015) are IC50 values, retold here.

One may read the IC50 as the midpoint of a concentration-inhibition curve. A high value points to a need for much substance.

The assay addresses Aβ42 (amyloid β-protein 42) (Homo sapiens, UniProt P05067). Briefly: ThT fluorescence fibrillogenesis assay. Type of assay: biochemical.

Chain of Aβ42 (amyloid β-protein 42) (P05067 672-713): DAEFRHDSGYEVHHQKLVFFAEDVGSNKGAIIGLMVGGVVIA

`O=C(O[C@@H]1Cc2c(O)cc(O)cc2O[C@@H]1c1cc(O)c(O)c(O)c1)c1cc(O)c(O)c(O)c1` [EGCG]: the IC50 was found to be 2.4 ± 0.4 µM. Turning to `Oc1ccc2c(c1)OC[C@]1(O)Cc3cc(O)c(O)cc3[C@H]21` [brazilin], half-maximal inhibition (IC50) required 1.5 ± 0.3 µM.
